Experimental data from US12473313B2, “Therapeutic compounds and methods of use thereof” (Regents of the University of Minnesota, priority 2020, dated 2025).

Legend:
[1] = Body weight and serum glucose of treated diabetic mice; type: in vivo; details: 1 mg/kg/day for 2 weeks, versus before treatment
Method: (§1) To test compound activity against mitochondrial oxidative stress and diastolic dysfunction Mice were fed a high fat diet for 16 weeks starting at 6 weeks of age. Before treatment, fasting blood glucose (Gluc) and body weight were measured. Gluc was used to screen for diabetes mellitus (DM). Echocardiography was used to identify DD by measuring the E/e′ ratio. Treatment of compounds 58 and 94 was 1 mg/kg/day for 2 weeks. Then, E/e′ was reassessed.

diabetic mice = test: Diastolic dysfunction (E/e′ ratio by echocardiography) in high fat diet diabetic mice; type: in vivo; details: diabetic mice (high fat diet 16 weeks), 1 mg/kg/day for 2 weeks
Method: as §1

[2] = target: mitochondrial reactive oxygen species (mitoROS); test: ROS-Glo Assay of superoxide dismutase activity on menadione-induced mitoROS; type: cell-based; details: for half maximal effective concentration (EC50) for mitoROS suppression: FIG. 6, compared with mitoTEMPO
Source text: To test compounds for mitochondrial antioxidant behavior, the ROS-Glo Assay to assess superoxide dismutase activity of induced mitochondrial reactive oxygen species (mitoROS). In this assay, menadione is used to induce mitoROS production, and then a […] is used to measure the resultant hydrogen peroxide levels. A higher level of hydrogen peroxide means more dismutase activity.

mice with HFpEF = mice with HFpEF (Jeong et al. J Am Heart Assoc. 2016); cited from earlier work
[3] = tested on: mitoROS in diabetic (DM) mice; test: mitoROS in diabetic (DM) mice measured by mitoSOX Red fluorescence; type: in vivo; details: FIG. 9
Method: as §1

Row | SMILES | body weight [1] | diastolic dysfunction as measured by E/e′ ratio (diabetic mice) | half maximal effective concentration (EC50) for mitoROS suppression [2] | other results
1 | CC1(C)CC(NC(=O)C[P+](c2ccc(F)cc2)(c2ccc(F)cc2)c2ccc(F)cc2)CC(C)(C)N1[O].[Cl-] [compound 94, 2,2,6,6-Tetramethyl-4-[[2-(tri-4-fluorophenylphosphonio)-acetyl]amino]-1-piperidinyloxy Chloride] | did not affect | Diastolic dysfunction is treated |  | 
2 | COc1ccc([P@TB15+](CC(=O)NC2CC(C)(C)N([O])C(C)(C)C2)(c2ccc(OC)cc2)c2ccc(OC)cc2)cc1 [compound 2, 2,2,6,6-Tetramethyl-4-[[2-(tri-4-methoxyphenyl-phosphonio)acetyl]amino]-1-piperidinyloxy Chloride] |  |  | lower EC50s for mitoROS suppression than did mitoTEMPO | 
3 | CC1(C)CC(NC(=O)C[P+](c2ccccc2)(c2ccccc2)c2ccccc2)CC(C)(C)N1[O] [mitoTEMPO] |  |  |  | diastolic function (mice with HFpEF): improve diastolic function
4 | COc1ccc([P+](CCC(=O)NC2CC(C)(C)N(O)C(C)(C)C2)(c2ccc(OC)cc2)c2ccc(OC)cc2)cc1.[Br-] [compound 58, 2,2,6,6-Tetramethyl-4-[[3-(tri-4-methoxyphenylphosphonio)-propionyl]amino]-1-piperidinyloxy Bromide] | Neither serum glucose nor body weight were affected | Diastolic dysfunction is treated |  | mitoROS as measured by mitoSOX Red fluorescence [3]: able to reduces mitoROS; half maximal inhibitory concentration (IC50) ([2]; ROS-Glo assay, FIG. 5, compared with mitoTEMPO): better than that of mitoTEMPO
5 | CC1(C)CC(NC(=O)CCCCC[P+](c2ccc(F)cc2)(c2ccc(F)cc2)c2ccc(F)cc2)CC(C)(C)N1[O].[Br-] [compound 86, 2,2,6,6-Tetramethyl-4-[[6-(tri-4-fluorophenylphosphonio)-hexanoyl]amino]-1-piperidinyloxy Bromide] |  |  | lower EC50s for mitoROS suppression than did mitoTEMPO | 
6 | COc1cc(OC)c([P+](CC(=O)NC2CC(C)(C)N([O])C(C)(C)C2)(c2c(OC)cc(OC)cc2OC)c2c(OC)cc(OC)cc2OC)c(OC)c1.[Cl-] [compound 88, 2,2,6,6-Tetramethyl-4-[[2-(tri-2,4,6-trimethoxyphenyl(2-phosphonia))acetyl]amino]-1-piperidinyloxy Chloride] |  |  | lower EC50s for mitoROS suppression than did mitoTEMPO | 
